Assay results taken from ChEMBL document CHEMBL1201862, “PubChem BioAssay data set” (2004).
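Growth conditions: 96-well plates. Treatment: test compound, 48 hours, 5 concentrations. Analysis: linear interpolation between bracketing concentrations; unreached endpoints set to highest concentration. At the GI50, growth is halved.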 The source made the active and inactive calls. Rule as the data show it: active = GI50 up to about 1.1 µM and inactive = higher.

Experiments:
Assay in all cases: growth of human tumour cells (NCI), 48 h
HL-60 = tested on: HL-60
IGROV-1 = tested on: IGROV-1
K562 = tested on: K562
HCT-15 = tested on: HCT-15
SF-539 = tested on: SF-539
SNB-75 = tested on: SNB-75
XF498 = tested on: XF498
UACC-257 = tested on: UACC-257
MOLT-4 = tested on: MOLT-4
SK-OV-3 = tested on: SK-OV-3
NCI-H460 = tested on: NCI-H460
Malme-3M = tested on: Malme-3M
786-0 = tested on: 786-0
UO-31 = tested on: UO-31
SW-620 = tested on: SW-620
ACHN = tested on: ACHN
DLD-1 = tested on: DLD-1
M14 = tested on: M14
EKVX = tested on: EKVX
SF-295 = tested on: SF-295
TK-10 = tested on: TK-10
M19-MEL = tested on: M19-MEL
DMS-114 = tested on: DMS-114
SK-MEL-5 = tested on: SK-MEL-5
U-251 = tested on: U-251
SNB-19 = tested on: SNB-19
OVCAR-5 = tested on: OVCAR-5
SK-MEL-28 = tested on: SK-MEL-28
KM12 = tested on: KM12
SF-268 = tested on: SF-268
RPMI-8226 = tested on: RPMI-8226
UACC-62 = tested on: UACC-62
NCI-H23 = tested on: NCI-H23
DMS-273 = tested on: DMS-273
OVCAR-4 = tested on: OVCAR-4
NCI-H226 = tested on: NCI-H226
COLO 205 = tested on: COLO 205
HCC 2998 = tested on: HCC 2998
A549 = tested on: A549
SN12C = tested on: SN12C
NCI-H522 = tested on: NCI-H522
OVCAR-8 = tested on: OVCAR-8
LXFL 529 = tested on: LXFL 529
CAKI-1 = tested on: CAKI-1
OVCAR-3 = tested on: OVCAR-3
RXF 393 = tested on: RXF 393
SK-MEL-2 = tested on: SK-MEL-2
HOP-62 = tested on: HOP-62
HT-29 = tested on: HT-29
CCRF-CEM = tested on: CCRF-CEM
LOX IMVI = tested on: LOX IMVI
HOP-18 = tested on: HOP-18
KM-20L2 = tested on: KM-20L2
SNB-78 = tested on: SNB-78
A498 = tested on: A498
HOP-92 = tested on: HOP-92
HCT-116 = tested on: HCT-116

Structure (SMILES): COC(=O)N/N=C(/CCC(=O)Nc1ccc(C)c(C)c1)CC(=O)C(C)(C)C
- GI50 (HL-60): > 100 µM (inactive)
- GI50 (IGROV-1): > 100 µM (inactive)
- GI50 (K562): > 100 µM (inactive)
- GI50 (HCT-15): > 100 µM
- GI50 (SF-539): > 100 µM (inactive)
- GI50 (SNB-75): > 100 µM (inactive)
- GI50 (XF498): > 100 µM (inactive)
- GI50 (UACC-257): > 100 µM (inactive)
- GI50 (MOLT-4): > 100 µM (inactive)
- GI50 (SK-OV-3): > 100 µM (inactive)
- GI50 (NCI-H460): > 100 µM (inactive)
- GI50 (Malme-3M): > 100 µM (inactive)
- GI50 (786-0): > 100 µM (inactive)
- GI50 (UO-31): > 100 µM (inactive)
- GI50 (SW-620): > 100 µM (inactive)
- GI50 (ACHN): > 100 µM (inactive)
- GI50 (DLD-1): > 100 µM (inactive)
- GI50 (M14): > 100 µM (inactive)
- GI50 (EKVX): > 100 µM (inactive)
- GI50 (SF-295): > 100 µM (inactive)
- GI50 (TK-10): > 100 µM (inactive)
- GI50 (M19-MEL): > 100 µM (inactive)
- GI50 (DMS-114): > 100 µM (inactive)
- GI50 (SK-MEL-5): > 100 µM (inactive)
- GI50 (U-251): > 100 µM (inactive)
- GI50 (SNB-19): > 100 µM (inactive)
- GI50 (OVCAR-5): > 100 µM (inactive)
- GI50 (SK-MEL-28): > 100 µM (inactive)
- GI50 (KM12): > 100 µM (inactive)
- GI50 (SF-268): > 100 µM (inactive)
- GI50 (RPMI-8226): > 100 µM (inactive)
- GI50 (UACC-62): > 100 µM (inactive)
- GI50 (NCI-H23): > 100 µM (inactive)
- GI50 (DMS-273): > 100 µM (inactive)
- GI50 (OVCAR-4): > 100 µM (inactive)
- GI50 (NCI-H226): > 100 µM (inactive)
- GI50 (COLO 205): > 100 µM (inactive)
- GI50 (HCC 2998): > 100 µM (inactive)
- GI50 (A549): > 100 µM (inactive)
- GI50 (SN12C): > 100 µM (inactive)
- GI50 (NCI-H522): > 100 µM (inactive)
- GI50 (OVCAR-8): > 100 µM (inactive)
- GI50 (LXFL 529): > 100 µM (inactive)
- GI50 (CAKI-1): > 100 µM (inactive)
- GI50 (OVCAR-3): > 100 µM (inactive)
- GI50 (RXF 393): > 100 µM (inactive)
- GI50 (SK-MEL-2): > 100 µM (inactive)
- GI50 (HOP-62): > 100 µM (inactive)
- GI50 (HT-29): > 100 µM (inactive)
- GI50 (CCRF-CEM): > 100 µM (inactive)
- GI50 (LOX IMVI): > 100 µM (inactive)
- GI50 (HOP-18): > 100 µM (inactive)
- GI50 (KM-20L2): > 100 µM (inactive)

Structure (SMILES): Cc1c2ccnc(O)c2cc2c(=O)c3cnccc3[nH]c12
- GI50 (HL-60): > 100 µM (inactive)
- GI50 (IGROV-1): > 100 µM (inactive)
- GI50 (K562): > 100 µM (inactive)
- GI50 (HCT-15): > 100 µM
- GI50 (SNB-75): > 100 µM (inactive)
- GI50 (UACC-257): > 100 µM (inactive)
- GI50 (MOLT-4): > 100 µM (inactive)
- GI50 (SNB-78): > 100 µM (inactive)
- GI50 (SK-OV-3): > 100 µM (inactive)
- GI50 (NCI-H460): > 100 µM (inactive)
- GI50 (Malme-3M): > 100 µM (inactive)
- GI50 (786-0): > 100 µM (inactive)
- GI50 (UO-31): > 100 µM (inactive)
- GI50 (SW-620): > 100 µM (inactive)
- GI50 (ACHN): > 100 µM (inactive)
- GI50 (DLD-1): > 100 µM (inactive)
- GI50 (M14): > 100 µM (inactive)
- GI50 (A498): > 100 µM (inactive)
- GI50 (EKVX): > 100 µM (inactive)
- GI50 (SF-295): > 100 µM (inactive)
- GI50 (HOP-92): > 100 µM (inactive)
- GI50 (TK-10): > 100 µM (inactive)
- GI50 (M19-MEL): > 100 µM (inactive)
- GI50 (DMS-114): > 100 µM (inactive)
- GI50 (SK-MEL-5): > 100 µM (inactive)
- GI50 (U-251): > 100 µM (inactive)
- GI50 (SNB-19): > 100 µM (inactive)
- GI50 (OVCAR-5): > 100 µM (inactive)
- GI50 (SK-MEL-28): > 100 µM (inactive)
- GI50 (KM12): > 100 µM (inactive)
- GI50 (SF-268): > 100 µM (inactive)
- GI50 (RPMI-8226): > 100 µM (inactive)
- GI50 (UACC-62): > 100 µM (inactive)
- GI50 (NCI-H23): > 100 µM (inactive)
- GI50 (DMS-273): > 100 µM (inactive)
- GI50 (OVCAR-4): > 100 µM (inactive)
- GI50 (NCI-H226): > 100 µM (inactive)
- GI50 (COLO 205): > 100 µM (inactive)
- GI50 (HCC 2998): > 100 µM (inactive)
- GI50 (A549): > 100 µM (inactive)
- GI50 (SN12C): > 100 µM (inactive)
- GI50 (NCI-H522): > 100 µM (inactive)
- GI50 (OVCAR-8): > 100 µM (inactive)
- GI50 (HCT-116): > 100 µM (inactive)
- GI50 (LXFL 529): > 100 µM (inactive)
- GI50 (CAKI-1): > 100 µM (inactive)
- GI50 (OVCAR-3): > 100 µM (inactive)
- GI50 (RXF 393): > 100 µM (inactive)
- GI50 (SK-MEL-2): > 100 µM (inactive)
- GI50 (HOP-62): > 100 µM (inactive)
- GI50 (HT-29): > 100 µM (inactive)
- GI50 (CCRF-CEM): > 100 µM (inactive)
- GI50 (LOX IMVI): > 100 µM (inactive)
- GI50 (HOP-18): > 100 µM (inactive)
- GI50 (KM-20L2): > 100 µM (inactive)
